In patent US5061794A, “Cephalosporin derivatives, and antibacterial agents” (priority 1986, dated 1991) one finds MIC data, which are given here for three compounds.

The test system of experiment [1] is Ps. aeruginosa AK 109. Kind of experiment: in vitro antibacterial activity, agar plate dilution method (MIC). Format: cell-based, Pseudomonas aeruginosa. The following applies: Pseudomonas aeruginosa, AK109, 16 h, read-out: Minimum Inhibitory Concentration (MIC). Summed up:
(§1)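 Each organism, pre-grown overnight in Mueller Hinton broth, is inoculated at 10^6 CFU/ml onto Mueller Hinton agar series with increasing compound concentration; growth inhibition is scored after 16 h, 37° C., giving MIC (μg/ml).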

Experiment [2] relates to Ps. aeruginosa IF03445. The experiment is described as above. Type of experiment: cell-based, Pseudomonas aeruginosa. The settings on record: Pseudomonas aeruginosa, IF03445, 16 h, read-out: Minimum Inhibitory Concentration (MIC), Ps. aeruginosa IF03445; 10^6 CFU/ml. Summed up:
as §1

Experiment [3] deals with Ps. aeruginosa AKR17. The description is as above. Format: cell-based, Pseudomonas aeruginosa. The following applies: Pseudomonas aeruginosa, read-out: Minimum Inhibitory Concentration (MIC). Summed up:
as §1

Experiment [4] relates to E. coli CSH(RE45). The experiment in a line: microbe, parasite or virus in culture. The following applies: Escherichia coli, 16 h, read-out: Minimum Inhibitory Concentration (MIC), *E. coli CSH(RE45), lactamase-producing strain; 10^6 CFU/ml. Type of experiment: cell-based. Summed up:
as §1

The subject of experiment [5] is E. coli CSH2 (RK1). Kind of experiment: microbe, parasite or virus in culture. Type of experiment: cell-based. The settings on record: Escherichia coli, 16 h, read-out: Minimum Inhibitory Concentration (MIC), *E. coli CSH2 (RK1), lactamase-producing strain; 10^6 CFU/ml. Summed up:
as §1

The test system of experiment [6] is Ps. cepacia 23. Kind of experiment: in vitro antibacterial activity, agar plate dilution method (MIC). Type of experiment: cell-based, Pseudomonas cepacia. The settings on record: read-out: Minimum Inhibitory Concentration (MIC). Summed up:
as §1

Experiment [7] relates to S. aureus 209P NIHJ-JC1. Described as above. The following applies: Staphylococcus aureus, 16 h, read-out: Minimum Inhibitory Concentration (MIC). Type of experiment: cell-based. Summed up: as §1
Experiment [8] concerns M. morganii GN5407. The description is as above. Format: cell-based. The following applies: Morganella morganii, GN5407, 16 h, read-out: Minimum Inhibitory Concentration (MIC), *M. morganii GN5407, lactamase-producing strain; 10^6 CFU/ml. Summed up: as §1
Experiment [9] has as its system P. vulgaris No. 33. The description is as above. Type of experiment: cell-based. The following applies: Proteus vulgaris, NO.33, 16 h, read-out: Minimum Inhibitory Concentration (MIC), *P. vulgaris No. 33, lactamase-producing strain; 10^6 CFU/ml. Summed up: as §1
In experiment [10] the test system is E. coli NIHJ JC2. The description is as above. Format: cell-based. The settings on record: Escherichia coli, NIHJJC2, 16 h, read-out: Minimum Inhibitory Concentration (MIC), E. coli NIHJ JC2, 10^6 CFU/ml, 37° C. Summed up: as §1
Experiment [11] deals with S. marcescens No. 16-2. The experiment is described as above. Format: cell-based. The following applies: Serratia marcescens, NO.162, 16 h. Summed up:
as §1

Experiment [12] deals with E. cloacae Nek 39. The description is as above. Type of experiment: cell-based. The following applies: Enterobacter cloacae, NEK39, 16 h, read-out: Minimum Inhibitory Concentration (MIC), *E. cloacae Nek 39, lactamase-producing strain; 10^6 CFU/ml. Summed up:
as §1

Experiment [13] deals with K. pneumoniae No. 42. Described as above. Format: cell-based. The following applies: Klebsiella pneumoniae, NO.42, 16 h, read-out: Minimum Inhibitory Concentration (MIC), *K. pneumoniae No. 42, lactamase-producing strain; 10^6 CFU/ml. Summed up: as §1
Experiment [14] deals with K. pneumoniae PCI-602. Described as above. Type of experiment: cell-based. The settings on record: Klebsiella pneumoniae, PCI602, 16 h, read-out: Minimum Inhibitory Concentration (MIC), K. pneumoniae PCI-602; 10^6 CFU/ml. Summed up: as §1
The test system of experiment [15] is K. oxytoca GN10650. Described as above. Format: cell-based. The following applies: Klebsiella oxytoca, GN10650, 16 h, read-out: Minimum Inhibitory Concentration (MIC), *K. oxytoca GN10650, lactamase-producing strain; 10^6 CFU/ml. Summed up: as §1
Experiment [16] deals with S. marcescens IAM 1184. The description is as above. Format: cell-based. The following applies: Serratia marcescens, IAM1184, 16 h, read-out: Minimum Inhibitory Concentration (MIC). Summed up:
as §1

The subject of experiment [17] is E. cloacae 963. The description is as above. Format: cell-based. The following applies: 10^6 CFU/ml. Summed up:
as §1

In experiment [18] the test system is E. coli GN5482. The description is as above. The following applies: Escherichia coli, GN5482, 16 h. Format: cell-based. Summed up: as §1
Experiment [19] concerns P. vulgaris HX-19. Described as above. Format: cell-based. The following applies: Proteus vulgaris, HX19, 16 h, P. vulgaris HX-19; 10^6 CFU/ml; read-out: Minimum Inhibitory Concentration (MIC). Summed up:
as §1

In experiment [20] the test system is A. calcoaceticus No. 4. The experiment is described as above. Type of experiment: cell-based, Acinetobacter calcoaceticus. The following applies: Acinetobacter calcoaceticus, NO.4, 16 h, A. calcoaceticus No. 4; 10^6 CFU/ml; read-out: Minimum Inhibitory Concentration (MIC). Summed up:
as §1

[21] abbreviates: Ps. aeruginosa AK 109, 10^6 CFU/ml.
The mark [22] stands for this setting: read-out: Minimum Inhibitory Concentration (MIC).
The mark [23] stands for this setting: Enterobacter cloacae, 963, 16 h, read-out: Minimum Inhibitory Concentration (MIC), E. cloacae 963.
The mark [24] stands for this setting: 16 h, Ps. aeruginosa AKR17, 10^6 CFU/ml.

Read-outs that look alike come from different tables or passages of the source. Where only a bound is given, the exact number is not on record here.

For the compound `Nc1nc(/C(=N/OCC(=O)O)C(=O)N[C@@H]2C(=O)N3C(C(=O)O)=C(CSc4nnc(-c5ccc(O)c(O)c5)o4)CS[C@H]23)cs1` [compound 10, disodium 78-[2-(2-aminothiazol-4-yl)-2-carboxylatemethoxyiminoacetamido]-3-[5-(3,4-dihydroxyphenyl)-1,3,4-oxadiazol-2-yl]thiomethvl-3-cephem-4-carboxylate], the MIC in [1] (setting [21]) was 0.2 µg/mL; in [2] it was 0.39 µg/mL; in [3] (AKR17, 16 h) it was 12.5 µg/mL; in experiment [4], 0.0125 µg/mL; in [5], under 0.006 µg/mL; in experiment [6] (Burkholderia cepacia, 16 h, Ps. cepacia 23, 10^6 CFU/ml) it was under 0.006 µg/mL. In addition, the MIC in [7] stood at 12.5 µg/mL; in [8], 0.025 µg/mL; in experiment [9], 0.025 µg/mL; in experiment [10], 0.05 µg/mL; in experiment [11] (setting [22]), 0.39 µg/mL; in [12], 0.05 µg/mL. The MIC is 0.025 µg/mL in experiment [13]; under 0.006 µg/mL in [14]; 0.1 µg/mL in [15]; 0.0125 µg/mL in experiment [16]; 0.025 µg/mL in experiment [17] (setting [23]); 0.39 µg/mL in experiment [18] (setting [22]). Besides, the MIC in experiment [19] is under 0.006 µg/mL; in experiment [20], 0.05 µg/mL.

Regarding `CO/N=C(\C(=O)N[C@@H]1C(=O)N2C(C(=O)O)=C(CSc3nc(-c4ccc(O)cc4)cs3)CS[C@H]12)c1csc(N)n1` [compound 10, sodium 7β-[2-(2-aminothiazol-4-yl)-2-methoxyiminoacetamido]-3-[4-(4-hydroxyphenyl)thiazol-2-yl]thiomethyl-3-cephem-4-carboxylate, reference compound], the MIC in experiment [1] is 12.5 µg/mL; in experiment [2], 6.25 µg/mL; in experiment [3] (setting [24]), over 100 µg/mL; in [4], 0.78 µg/mL; in experiment [5] it was 0.39 µg/mL; in [6] (Burkholderia cepacia, 23, 16 h) it was 3.12 µg/mL. In addition, the MIC in experiment [7] (S. aureus 209P NIHJ-JC1, 10^6 CFU/ml, 37° C., 16 hours) worked out at 0.2 µg/mL; in experiment [8], 0.78 µg/mL; in [9], 0.78 µg/mL; in experiment [10], 0.78 µg/mL; in experiment [11] (setting [22]), 3.12 µg/mL; in [12], 3.12 µg/mL. In addition, the MIC in experiment [13] is 1.56 µg/mL; in experiment [14], under 0.006 µg/mL; in [15], 3.12 µg/mL; in experiment [16], 0.78 µg/mL; in experiment [17] (setting [23]), 1.56 µg/mL; in experiment [18] (setting [22]), 0.39 µg/mL. Further, the MIC in experiment [19] is under 0.006 µg/mL; in [20], 50 µg/mL.

In the case of `CC(C)(O/N=C(\C(=O)N[C@@H]1C(=O)N2C(C(=O)O)=C(CSc3nc(-c4ccccc4)cs3)CS[C@H]12)c1csc(N)n1)C(=O)O` [compound 11, disodium 7β-[2-(2-aminothiazol-4-yl)-2-(1-carboxylate-1-methylethoxyimino)acetamido]-3-(4-phenylthiazol-2-yl) thiomethyl-3-cephem-4-carboxylate, reference compound], the MIC was 50 µg/mL in experiment [1] (setting [21]); 12.5 µg/mL in experiment [2]; over 100 µg/mL in [3] (setting [24]); 1.56 µg/mL in [4]; 1.56 µg/mL in experiment [5]; 12.5 µg/mL in experiment [6] (Burkholderia cepacia, 23, 16 h). Moreover, the MIC was 3.12 µg/mL in [7]; 1.56 µg/mL in experiment [8]; 0.78 µg/mL in [9]; 3.12 µg/mL in experiment [10]; 6.25 µg/mL in [11] (read-out: Minimum Inhibitory Concentration (MIC), *S. marcescens No. 16-2, lactamase-producing strain, 10^6 CFU/ml); 12.5 µg/mL in [12]. Also, the MIC in experiment [13] came out at 3.12 µg/mL; in experiment [14], 0.1 µg/mL; in experiment [15], 3.12 µg/mL; in experiment [16], 1.56 µg/mL; in [17] (Enterobacter cloacae, 16 h, E. cloacae 963, read-out: Minimum Inhibitory Concentration (MIC)) it was 6.2 µg/mL; in [18] (read-out: Minimum Inhibitory Concentration (MIC), *E. coli GN5482, lactamase-producing strain, 10^6 CFU/ml), 1.56 µg/mL. Also, the MIC in experiment [19] was under 0.006 µg/mL; in [20], over 100 µg/mL.
